The subject of data set [1] is HeLa. Description: Cell proliferation measurement (Cell Titer Glo, 72 h). The format is cell-based. The conditions noted are these: Homo sapiens, Cervical Cancer. The method, then: (§1) The antiproliferative activity of the compounds of the general formula (I) was examined in vitro in human cancer cells. For this purpose, 1000 cells, including HuT78 cells, 500 HeLa cells, or 500 A2058 cells, were plated in 384-well plates with appropriate growth medium and incubated at 37° C. overnight. After 24 h, the cells on the test plate were treated with the compounds of the general formula (I) as and incubated at 37° C. for 72 h. The compounds were added to the cells by means of an HP D300 digital dispenser in a 10 (or more)—step dilution series. As control, the cells were treated with vehicle (DMSO at 0.3% final concentration). After 72 h, the cells were treated with 20 µl/well of 50% CTG solution in PBS (Promega Cell Titer Glo (catalogue # G755B and G756B)) and incubated at room temperature for 10 min, and luminescence was measured by means of a VICTOR V (Perkin Elmer), in order to determine cell viability at the end of treatment. The percentage effect on cell growth and the IC50 derived therefrom were determined for each test substance using the values from untreated wells (=percent viability). The IC50 values were calculated using a 4-parameter fit.
A general note: ATP-based viability assays read luminescence as a measure of living cells.

For data set [2], the system named is SKMEL3. The description is as above. In kind it is cell-based. The following applies: Homo sapiens, SK-MEL3, SKMEL3, Melanoma. The method, then:
as §1

In data set [3] the test system is IGR37. The description is as above. In kind it is cell-based. The conditions noted are these: Homo sapiens, IGR-37, IGR37, Melanoma. The method, then:
as §1

In data set [4] the test system is A549. The data set is described as above. In kind it is cell-based. The conditions noted are these: Homo sapiens, A549, Lung adenocarcinoma, printed as (inactive). As for the experimental part:
as §1

The subject of data set [5] is xenograft models of human tumors. Description: Murine xenotransplantation models of human cancer (overall). In kind it is in vivo, mice. The conditions noted are these: monotherapy, p.o., different xenograft models. As for the experimental part:
(§2) The anti-tumor activity of Compound 1 was examined in murine xenotransplantation models of human cancer. For this purpose, mice were implanted subcutaneously with tumor cells. At a mean tumor size of 20-40 mm^2 animals were randomized into treatment and control groups (at least n=10 animals/group) and treatment started with vehicle only or Compound 1 (formulation: 90% PEG400/10% Ethanol; application route: per os (“p.o.”), orally). The oral application volume was 10 ml/kg. In the case of twice daily treatments, the time interval between two applications per day was 6-7h. The tumor size and the body weight were determined at least weekly. The tumor area was detected by means of an electronic caliper [length (mm)×width (mm)]. The experiment was ended when the tumors of the vehicle control reached the pre-determined ethical endpoint based on German and European animal welfare regulations. In vivo anti-tumor efficacy is presented as T/C ratio at study end (Treatment/Control; mean tumor area or weight of treatment group/mean tumor area or weight of control group) in Table 7. A compound having a T/C below 0.5 is defined as active (i.e., effective). Statistical analysis was assessed using SigmaStat software. A one-way analysis of variance was performed and differences to the control were compared by a pair-wise comparison procedure (Dunn's method).
For orientation: Xenograft models place foreign cells or tissue in a host animal.

The nature of data set [6]: In vitro metabolic stability in cryopreserved human hepatocytes. The conditions noted are these: 1 μM test compound. The format is in vitro ADME. The method, then: Cryopreserved Hepatocytes (e.g. purchased from Celsis InVitroTechnologies) were briefly thawed, washed with 45 mL pre-warmed in in vitro GRO HT medium and centrifuged for 5 min at 50×g. The cell pellet was resuspended in 5 ml of Krebs-Henseleit […] (KHB). Cell viability was determined by trypan blue exclusion.
For the metabolic stability assay liver cells were distributed in WME containing 5% FCS to glass vials at a density of 1.0×10^6 vital cells/ml. The test compound was added to a final concentration of 1 μM. During incubation, the hepatocyte suspensions were continuously shaken at 580 rpm and aliquots were taken at 2, 8, 16, 30, 45 and 90 min, to which equal volumes of cold methanol were immediately added. Samples were frozen at −20° C. over night, after subsequently centrifuged for 15 minutes at 3000 rpm and the supernatant was analyzed with an Agilent 1290 HPLC-system with LCMS/MS detection.
The half-life of a test compound was determined from the concentration-time plot. From the half-life the intrinsic clearances were calculated. Together with the additional parameters liver blood flow, amount of liver cells in vivo and in vitro. The hepatic in vivo blood clearance (CL) and the maximal oral bioavailability (Fmax) was calculated.

Data set [7] can be described thus: In vivo pharmacokinetics in dogs. The conditions noted are these: female, Beagle, dog, plasma, iv, after i.v., read-out: clearance in dogs (CLp) (converted). The method, then: For in vivo pharmacokinetic experiments test compounds were administered to non-rodents (e.g. female Beagle dogs) intravenously at doses of 0.1 to 1 mg/kg and intragastral at doses of 0.3 to 3 mg/kg formulated as solutions using solubilizers such as PEG400 in well-tolerated amounts and are usually given as short term infusion (15 min).
Blood samples were taken e.g. at 2 min, 8 min, 15 min, 30 min, 45 min, 1 h, 2 h, 4 h, 6 h, 8 h and 24 h after dosing from the vena saphena. Depending on the expected half-life additional samples were taken at later time points (e.g. 48 h, 72 h).
For pharmacokinetics after intragastral administration test compounds were given intragastral to fasted non-rodents (e.g. dogs). Blood samples were taken e.g. at 5 min, 15 min, 30 min, 45 min, 1 h, 2 h, 4 h, 6 h, 8 h and 24 h after dosing. Depending on the expected half-life additional samples were taken at later time points (e.g. 48 h, 72 h). Blood was collected into Lithium-Heparin tubes (Monovetten®, Sarstedt) and centrifuged for 15 min at 3000 rpm. […] PK parameters were calculated by non-compartmental analysis using a PK calculation software. […]
PK parameters calculated from concentration time profiles after i.g.: Cmax: Maximal plasma concentration (in mg/L); Cmaxnorm: Cmax divided by the administered dose (in kg/L); Tmax: Time point at which Cmax was observed (in h). […]

Data set [8] deals with PDE3A-CRISPR A2058 cells. As to the kind of experiment: Dose response in A2058 cells with CRISPR knockout of PDE3A. The format is cell-based, human. The method, then:
as §1
CRISPR target sites were identified using the MIT CRISPR Design Tool (online MIT CRISPR design portal). For cloning of sgRNAs, forward and reverse oligonucleotides (oligos) were annealed, phosphorylated and ligated into BsmBI-digested pXPR_BRD001. Oligo sequences are as follows:
To produce lentivirus, 293T cells were co-transfected with pXPR_BRD001, psPAX2 and pMD2.G using calcium phosphate. Infected A2058 and HeLa cells were selected with 2 μg/ml of puromycin.

Data set [9] deals with HeLa xenograft. As to the kind of experiment: In vivo xenotransplantation model. The arrangement: species or system mice. The conditions noted are these: Cervical cancer, 10 mg/kg 2QD p.o., study end. As for the experimental part: as §2
Data set [10] deals with A2058 xenograft. As to the kind of experiment: In vivo xenotransplantation model. Also on record: species or system mice. The conditions noted are these: A2058, Melanoma, 40 mg/kg 2QD p.o. The method, then: as §2
Data set [11] has as its system IGR-37 xenograft. Description: In vivo xenotransplantation model. Also on record: species or system mice. The conditions noted are these: IGR-37, Melanoma, 40 mg/kg 2QD p.o. The method, then: as §2
For data set [12], the system named is SK-MEL3 xenograft. As to the kind of experiment: In vivo xenotransplantation model. The conditions noted are these: SK-MEL3, Melanoma, 40 mg/kg 2QD p.o. The arrangement: species or system mice. The method, then: as §2
In data set [13] the test system is HeLa cells. Description: HeLa cell viability assay (compound sensitivity testing). The conditions noted are these: Homo sapiens, incubated for 48 hours. In kind it is cell-based. As for the experimental part:
1000 HeLa (DMEM), cells were plated in a 384-well plate in 40 μl of corresponding growth media supplemented with 10% Fetal Bovine Serum. 24 hours after plating, indicated compounds were added at indicated concentrations and incubated for 48 hours. Cell viability was assessed as described in Compound library screening in NCI-H1734 and A549 cell lines.

Data set [14] concerns the target T1, human full length PDE3A (Homo sapiens, UniProt Q14432).
T1 construct: Sf9 cells overexpressing human full length PDE3A; purchased SB Drug Discovery, UK; host or cells: Sf9 insect cells (cell extract, not purified)
As to the kind of experiment: PDE3A enzyme inhibition, 3H-cAMP scintillation proximity assay. In kind it is biochemical. The method, then: (§3) The commercially available ^3H-cAMP Scintillation Proximity Assay (SPA, Perkin Elmer) system was used for enzyme inhibition studies. For the determination of the in vitro effect of test substances on the PDE3A reactions 2 μl of the respective test compound solution in DMSO (serial dilutions) were placed in wells of microtiter plates (Isoplate-96/200W; Perkin Elmer). 50 μl of a dilution of PDE3A cell extract from Sf9 cells overexpressing human full length PDE3A (SB Drug Discovery, UK) in buffer A (50 mM Tris/HCl pH 7.5, 8.3 mM MgCl2, 1.7 mM EDTA, 0.2% BSA) was added. The dilution of the PDE3A cell extract was chosen such that the reaction kinetics was linear and less than 70% of the substrate was consumed (typical dilution 1:5000). The reaction was started by addition of 50 μl (0.025 μCi) of 1:2000 in buffer A w/o BSA diluted substrate [8-^3H] adenosine 3′, 5′-cyclic phosphate (1 μCi/μl; Perkin Elmer). After incubation at room temperature for 60 min, the reaction was stopped by addition of 25 μl of a suspension containing 18 mg/ml yttrium scintillation proximity beads (Perkin Elmer) in water. The microtiter plates were sealed and measured in a Microbeta scintillation counter (PerkinElmer Wallac). IC50 values were determined from sigmoidal curves by plotting percentage PDE3A activity vs log compound concentration.
On the technique in general: Scintillation proximity formats need no separation of bound from free tracer.

The target in data set [15] is T2, human full length PDE3B (Homo sapiens, UniProt Q13370).
T2 construct: Sf9 cells overexpressing human full length PDE3B; purchased SB Drug Discovery, UK; host or cells: Sf9 insect cells (cell extract, not purified)
Description: PDE3B enzyme inhibition, 3H-cAMP scintillation proximity assay. In kind it is biochemical. As for the experimental part:
as §3, with “PDE3B” for “PDE3A”, “1:6000).” for “1:5000).”

Structures are written as SMILES. Several values for one entry are separate records, joined by “and”; a condition that tells them apart may be missing. Identical values can stand only once. Marks after values point to notes of the source that are not given here.

T1 sequence (Q14432 whole entry): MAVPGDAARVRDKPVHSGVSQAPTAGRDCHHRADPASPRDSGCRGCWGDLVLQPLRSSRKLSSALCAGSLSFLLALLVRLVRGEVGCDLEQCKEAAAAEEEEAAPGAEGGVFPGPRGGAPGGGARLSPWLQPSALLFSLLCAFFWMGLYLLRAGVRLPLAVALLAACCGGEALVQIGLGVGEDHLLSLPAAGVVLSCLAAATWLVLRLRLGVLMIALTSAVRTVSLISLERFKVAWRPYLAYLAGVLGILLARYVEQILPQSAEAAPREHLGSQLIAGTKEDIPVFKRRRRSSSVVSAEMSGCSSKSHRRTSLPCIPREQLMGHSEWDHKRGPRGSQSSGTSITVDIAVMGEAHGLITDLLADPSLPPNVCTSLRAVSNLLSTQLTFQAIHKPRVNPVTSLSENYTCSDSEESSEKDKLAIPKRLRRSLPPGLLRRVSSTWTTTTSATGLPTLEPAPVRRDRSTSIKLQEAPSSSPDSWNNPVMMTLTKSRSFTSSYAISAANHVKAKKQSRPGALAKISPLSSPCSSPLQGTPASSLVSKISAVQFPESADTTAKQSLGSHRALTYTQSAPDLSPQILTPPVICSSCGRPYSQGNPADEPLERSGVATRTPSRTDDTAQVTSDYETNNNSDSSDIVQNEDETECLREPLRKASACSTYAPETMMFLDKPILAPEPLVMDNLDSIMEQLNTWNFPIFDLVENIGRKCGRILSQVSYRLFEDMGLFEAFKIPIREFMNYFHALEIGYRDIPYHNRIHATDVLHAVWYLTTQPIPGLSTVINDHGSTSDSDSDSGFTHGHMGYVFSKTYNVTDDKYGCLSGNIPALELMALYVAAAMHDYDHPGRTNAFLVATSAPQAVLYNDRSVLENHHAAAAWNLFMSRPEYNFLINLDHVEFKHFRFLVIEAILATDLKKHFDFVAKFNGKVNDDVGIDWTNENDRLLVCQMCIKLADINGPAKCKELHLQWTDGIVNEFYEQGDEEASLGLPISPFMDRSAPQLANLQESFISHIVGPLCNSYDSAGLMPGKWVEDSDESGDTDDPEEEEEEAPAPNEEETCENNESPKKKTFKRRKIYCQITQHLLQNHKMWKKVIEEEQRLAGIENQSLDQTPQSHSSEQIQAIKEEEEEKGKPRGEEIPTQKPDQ
T2 sequence (Q13370 whole entry): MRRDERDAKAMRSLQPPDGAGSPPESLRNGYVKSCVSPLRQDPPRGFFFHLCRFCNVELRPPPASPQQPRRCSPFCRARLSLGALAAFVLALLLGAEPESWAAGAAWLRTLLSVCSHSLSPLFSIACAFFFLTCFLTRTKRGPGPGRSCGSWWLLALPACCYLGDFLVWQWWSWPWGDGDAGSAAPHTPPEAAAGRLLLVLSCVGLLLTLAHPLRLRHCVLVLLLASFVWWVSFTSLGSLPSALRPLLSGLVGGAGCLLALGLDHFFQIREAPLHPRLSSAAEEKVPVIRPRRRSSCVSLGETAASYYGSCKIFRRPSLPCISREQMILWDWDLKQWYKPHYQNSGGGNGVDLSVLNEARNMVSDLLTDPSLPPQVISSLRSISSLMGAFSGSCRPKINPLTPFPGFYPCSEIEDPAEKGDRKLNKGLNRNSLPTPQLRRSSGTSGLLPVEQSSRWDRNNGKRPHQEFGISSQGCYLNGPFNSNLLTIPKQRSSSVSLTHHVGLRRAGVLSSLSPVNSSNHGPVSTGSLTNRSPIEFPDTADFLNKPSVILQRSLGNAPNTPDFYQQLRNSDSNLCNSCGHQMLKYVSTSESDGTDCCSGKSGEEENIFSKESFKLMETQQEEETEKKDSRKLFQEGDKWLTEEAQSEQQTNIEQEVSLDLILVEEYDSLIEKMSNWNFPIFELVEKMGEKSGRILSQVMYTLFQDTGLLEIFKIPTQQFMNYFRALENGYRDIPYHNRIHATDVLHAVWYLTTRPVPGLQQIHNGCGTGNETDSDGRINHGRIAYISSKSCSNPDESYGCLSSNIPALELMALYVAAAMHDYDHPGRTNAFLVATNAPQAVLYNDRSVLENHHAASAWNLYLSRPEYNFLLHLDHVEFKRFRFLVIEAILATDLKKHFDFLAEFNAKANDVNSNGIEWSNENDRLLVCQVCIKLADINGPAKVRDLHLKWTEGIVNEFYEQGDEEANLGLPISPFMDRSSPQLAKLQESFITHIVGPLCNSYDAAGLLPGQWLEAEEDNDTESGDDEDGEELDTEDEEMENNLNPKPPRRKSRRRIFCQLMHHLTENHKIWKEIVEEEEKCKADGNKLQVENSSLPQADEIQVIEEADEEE

For the molecule `C[C@@H]1CC(=O)NN=C1c1cc(F)c(N2CCOCC2)c(F)c1` [Compound 1, (5R)-6-[3,5-difluoro-4-(morpholin-4-yl)phenyl]-5-methyl-4,5-dihydropyridazin-3(2H)-one], the IC50 – broadly, the midpoint of a concentration-inhibition curve – in [1] is 0.852 nM; in [2], 1.01 nM; in [3], 2.19 nM; in data set [4], above 600 nM; in data set [14], 5 nM and 4.6 nM. In data set [5], the anti-tumor efficacy result is “potent anti-tumor efficacy”. Further, in data set [6], the “predicted maximal oral bioavailability (Fmax)” value is reported as 66%. For the same molecule, the clearance (commonly the rate of elimination divided by the concentration) in data set [7] is 12.8 mL/min/kg. For the same molecule, the “response to cytotoxic effects” value in data set [8] (ectopic expression of GFP) is reported as “lack of response”; in [8] (ectopic expression of PDE3B), “re-sensitized”; in data set [8] (ectopic expression of PDE3B, listed as compound 1), “restores sensitivity”. In addition, the “T/C (mean tumor area of treatment versus control)” value in data set [9] is given as 0.01a)*. Moreover, the results for the “T/C (mean final tumor weight of treatment versus control)” value in [10], in data set [11] and in data set [12] were 0.07b)*, 0.11b)* and 0.05b)*, respectively. Further, the EC50 – broadly, the concentration giving half of the maximal effect – in [13] was 1.1 nM.
On to `C[C@@H]1CC(=O)NN=C1c1cc(Cl)c(N2CCOCC2)c(Cl)c1` [Compound 2, 6-[3,5-dichloro-4-(morpholin-4-yl)phenyl]-5-methyl-4,5-dihydropyridazin-3(2H)-one], for which the IC50 in [15] came to 11 nM; in data set [14], 4 nM. In data set [13], this molecule gave an EC50 of 1.9 nM.
For `C[C@@H]1CC(=O)NN=C1c1ccc(N2CCOCC2)c(F)c1` [(5R)-6-[3-fluoro-4-(morpholin-4-yl)phenyl]-5-methyl-4,5-dihydropyridazin-3(2H)-one, reference compound], the “predicted maximal oral bioavailability (Fmax)” value in data set [6] is given as 49%. Moreover, the clearance in data set [7] is 28.3 mL/min/kg.

The values are drawn from patent US11142522B2, “Compounds, compositions and methods for cancer treatment” (THE BROAD INSTITUTE, INC., priority 2017, dated 2021).
